Experimental data from US8293764B2, “Compositions and methods for disruption of BRCA2-Rad51 interaction” (The Regents of the University of California, priority 2004, dated 2012).
Peptide text beside a SMILES is read from it. * marks the point of attachment. Cbz = O=C(OCc1ccccc1)*

Tested on: Rad51 in MCF-7 cells
Experiment: Rad51 stability assay with cyclohexamide
Type: cell-based
Conditions: 1 μM MG132, IBR2 treated and control cells
Text: To examine the impact of IBR2 on Rad51 protein expression, IBR2 treated MCF-7 cells was examined by straight western blot probed with a panel of antibodies against BRCA2, Rad51, Rad50, p84 and Rb. […] Consistent with our FACS analysis (FIG. 4A), the hypo-phosphorylated form of Rb, a marker for G1 phase, was the major form observed in the later time points, further confirming that IBR2 arrests cells at G1 phase (FIG. 4A). It has been reported that BRCA2 level is cell cycle dependent, which expresses low in G1 phase and peaks at G1/S boundary. Therefore the decreased level of BRCA2 in IBR2 treated cells may be due to G1 phase arrest. Different from BRCA2 protein, Rad51 protein is expressed constant throughout the cell cycle in MCF-7 cells (data not shown). Therefore, loss of Rad51 protein may be the direct effect of IBR2 treatment instead of the consequence of G1 arrest. […]
Western blot analysis: Cells were treated with […] or 50 μg/ml cycloheximide (CHX) or 1 μM MG132 and harvested at different time points for western blot analysis. […] The intensity of bands was quantified by densitometry using Labworks 4.5 software. The relative value of the band intensity was calculated with respect to that of untreated sample after normalization with the p84 signal.

## CC(C)C[C@@H](C=O)NC(=O)[C@H](CC(C)C)NC(=O)[C@H](CC(C)C)NC(=O)OCc1ccccc1 [MG132, reference compound] (Cbz-Leu-Leu-Leu-aldehyde)
  half-life of Rad51 with addition of MG132: prolonged
